Data: publication PMC8733726, “Dioctanoyl Ultrashort Tetrabasic β-Peptides Sensitize Multidrug-Resistant Gram-Negative Bacteria to Novobiocin and Rifampicin” (Frontiers in Microbiology, 2021)
Converted amounts (≈) assume the structure as drawn. Where two headings read alike, the source gives them in different places.

Columns and labels:
Assay in all cases: Resistance phenotype (MICs of antibiotics) of MDR clinical isolates
[1] = system: MDR P. aeruginosa clinical isolates; assay type: cell-based, Pseudomonas aeruginosa; details: Pseudomonas aeruginosa
[2] = system: MDR A. baumannii clinical isolates; assay type: cell-based, Acinetobacter baumannii; details: Acinetobacter baumannii
[3] = system: MDR E. coli clinical isolates; assay type: cell-based, Escherichia coli; details: Escherichia coli, read-out: MIC
[4] = system: MDR K. pneumoniae clinical isolates; assay type: cell-based, Klebsiella pneumoniae; details: Klebsiella pneumoniae, read-out: MIC
[5] = system: MDR E. cloacae clinical isolates; assay type: cell-based, Enterobacter cloacae; details: Enterobacter cloacae, read-out: MIC

Compound `CO/N=C(\C(=O)N[C@@H]1C(=O)N2C(C(=O)O)=C(COC(C)=O)CS[C@H]12)c1csc(N)n1` [CTX, cefotaxime] has an MIC ([1]; 259-96196, read-out: MIC) of 2050 µg/mL (≈ 4500 µM), an MIC ([1]; 262-101856, read-out: MIC) of 128 µg/mL (≈ 281 µM) and an MIC ([1]; 264-104354, read-out: MIC) of 2050 µg/mL (≈ 4500 µM). The MIC [1]; 91433 was 1020 µg/mL (≈ 2250 µM), the MIC ([1]; 114228, read-out: MIC) was 128 µg/mL (≈ 281 µM) and the MIC [2] was greater than 256 µg/mL. The MIC ([2]; AB031, read-out: MIC) was 16 µg/mL (≈ 35.1 µM).

`CO/N=C(\C(=O)N[C@@H]1C(=O)N2C(C(=O)O)=C(CSc3nc(=O)c(=O)[nH]n3C)CS[C@H]12)c1csc(N)n1` [CTR, ceftriaxone] was tested, and the MIC ([1]; 259-96196, read-out: MIC) was greater than 64 µg/mL, the MIC ([1]; 262-101856, read-out: MIC) was 64 µg/mL (≈ 115 µM) and the MIC ([1]; 264-104354, read-out: MIC) was greater than 64 µg/mL. The MIC ([1]; 91433, read-out: MIC) was greater than 64 µg/mL.

For `C[C@@H](O)[C@H]1C(=O)N2C(C(=O)O)=C(SCCN=CN)C[C@H]12` [IMI, imipenem], the MIC ([3]; 94393 (mcr-1 +)) was 0.25 µg/mL (≈ 0.835 µM), the MIC ([3]; 94474 (mcr-1 +)) was 0.25 µg/mL (≈ 0.835 µM) and the MIC [3]; 107115 was 8 µg/mL (≈ 26.7 µM). It also gave an MIC [4]; 113250 of 0.25 µg/mL (≈ 0.835 µM), an MIC [4]; 113254 of 0.12 µg/mL (≈ 0.401 µM) and an MIC [4]; 116381 of 0.5 µg/mL (≈ 1.67 µM). For the same compound, the MIC [5]; 117029 was 0.25 µg/mL (≈ 0.835 µM), the MIC ([1]; 259-96196, read-out: MIC) was 32 µg/mL (≈ 107 µM) and the MIC ([1]; 262-101856, read-out: MIC) was 32 µg/mL (≈ 107 µM). The MIC ([1]; 264-104354, read-out: MIC) was 32 µg/mL (≈ 107 µM), the MIC ([1]; 91433, read-out: MIC) was 32 µg/mL (≈ 107 µM) and the MIC ([2]; AB027, read-out: MIC) was 32 µg/mL (≈ 107 µM). For the same compound, the MIC ([2]; AB031, read-out: MIC) was 0.25 µg/mL (≈ 0.835 µM) and the MIC ([2]; LAC-4, read-out: MIC) was less than 1 µg/mL.

`CN(C)c1cc(CNCC(C)(C)C)c(O)c2c1C[C@H]1C[C@H]3[C@H](N(C)C)C(O)=C(C(N)=O)C(=O)[C@@]3(O)C(O)=C1C2=O` [OMC, omadacycline] was tested, and the MIC ([3]; 94393 (mcr-1 +)) was 4 µg/mL (≈ 7.19 µM), the MIC ([3]; 94474 (mcr-1 +)) was 16 µg/mL (≈ 28.7 µM) and the MIC [3]; 107115 was 4 µg/mL (≈ 7.19 µM). For the same compound, the MIC [4]; 113250 was 2 µg/mL (≈ 3.59 µM), the MIC [4]; 113254 was 4 µg/mL (≈ 7.19 µM) and the MIC [4]; 116381 was 4 µg/mL (≈ 7.19 µM). The MIC [5]; 117029 was 4 µg/mL (≈ 7.19 µM), the MIC ([1]; 259-96196, read-out: MIC) was 64 µg/mL (≈ 115 µM) and the MIC ([1]; 262-101856, read-out: MIC) was 64 µg/mL (≈ 115 µM). The MIC ([1]; 264-104354, read-out: MIC) was 64 µg/mL (≈ 115 µM), the MIC ([1]; 91433, read-out: MIC) was 128 µg/mL (≈ 230 µM) and the MIC ([1]; 114228, read-out: MIC) was 16 µg/mL (≈ 28.7 µM). It also gave an MIC ([2]; AB027, read-out: MIC) of 1 µg/mL (≈ 1.8 µM), an MIC ([2]; AB031, read-out: MIC) of 2 µg/mL (≈ 3.59 µM) and an MIC ([2]; LAC-4, read-out: MIC) of 1 µg/mL (≈ 1.8 µM).

In the case of `CN(C)c1cc(NC(=O)CNC(C)(C)C)c(O)c2c1C[C@H]1C[C@H]3[C@H](N(C)C)C(O)=C(C(N)=O)C(=O)[C@@]3(O)C(O)=C1C2=O` [TGC, tigecycline], the MIC ([3]; 94393 (mcr-1 +)) is reported as 0.25 µg/mL (≈ 0.427 µM), the MIC ([3]; 94474 (mcr-1 +)) is reported as 1 µg/mL (≈ 1.71 µM) and the MIC [3]; 107115 is reported as 0.25 µg/mL (≈ 0.427 µM). The MIC [4]; 116381 was 1 µg/mL (≈ 1.71 µM), the MIC [5]; 117029 was 0.5 µg/mL (≈ 0.854 µM) and the MIC ([1]; 259-96196, read-out: MIC) was 32 µg/mL (≈ 54.6 µM). The MIC ([1]; 262-101856, read-out: MIC) was 32 µg/mL (≈ 54.6 µM), the MIC ([1]; 264-104354, read-out: MIC) was 32 µg/mL (≈ 54.6 µM) and the MIC ([1]; 91433, read-out: MIC) was 32 µg/mL (≈ 54.6 µM). It also gave an MIC ([2]; 92247, read-out: MIC) of 0.25 µg/mL (≈ 0.427 µM), an MIC ([2]; AB027, read-out: MIC) of 4 µg/mL (≈ 6.83 µM) and an MIC ([2]; AB031, read-out: MIC) of 8 µg/mL (≈ 13.7 µM). For the same compound, the MIC ([2]; LAC-4, read-out: MIC) was less than 4 µg/mL.

Work on `CN(C)[C@@H]1C(O)=C(C(N)=O)C(=O)[C@@]2(O)C(O)=C3C(=O)c4c(O)c(NC(=O)CN5CCCC5)cc(F)c4C[C@H]3C[C@@H]12` [ERC, eravacycline] yielded an MIC ([3]; 94393 (mcr-1 +)) of 0.5 µg/mL (≈ 0.895 µM), an MIC ([3]; 94474 (mcr-1 +)) of 1 µg/mL (≈ 1.79 µM) and an MIC [3]; 107115 of 0.125 µg/mL (≈ 0.224 µM). For the same compound, the MIC [4]; 113250 was 1 µg/mL (≈ 1.79 µM), the MIC [4]; 113254 was 0.5 µg/mL (≈ 0.895 µM) and the MIC [4]; 116381 was 0.5 µg/mL (≈ 0.895 µM). It also gave an MIC [5]; 117029 of 0.5 µg/mL (≈ 0.895 µM), an MIC ([1]; 259-96196, read-out: MIC) of 8 µg/mL (≈ 14.3 µM) and an MIC ([1]; 262-101856, read-out: MIC) of 8 µg/mL (≈ 14.3 µM). The MIC ([1]; 264-104354, read-out: MIC) was 8 µg/mL (≈ 14.3 µM), the MIC ([1]; 91433, read-out: MIC) was 16 µg/mL (≈ 28.6 µM) and the MIC ([1]; 114228, read-out: MIC) was 8 µg/mL (≈ 14.3 µM). The MIC ([2]; AB027, read-out: MIC) was 0.5 µg/mL (≈ 0.895 µM), the MIC ([2]; AB031, read-out: MIC) was 0.25 µg/mL (≈ 0.448 µM) and the MIC ([2]; LAC-4, read-out: MIC) was 0.06 µg/mL (≈ 0.107 µM).

Work on `C[C@@H](O)[C@H]1C(=O)N2C(C(=O)O)=C(S[C@@H]3CN[C@H](C(=O)N(C)C)C3)[C@H](C)[C@H]12` [MER, meropenem] yielded an MIC ([3]; 94393 (mcr-1 +)) of no more than 0.03 µg/mL, an MIC ([3]; 94474 (mcr-1 +)) of no more than 0.03 µg/mL and an MIC [3]; 107115 of 32 µg/mL (≈ 83.4 µM). For the same compound, the MIC [4]; 113250 was no more than 0.03 µg/mL, the MIC [4]; 113254 was no more than 0.03 µg/mL and the MIC [4]; 116381 was no more than 0.03 µg/mL. For the same compound, the MIC [5]; 117029 was no more than 0.03 µg/mL, the MIC [5]; 118564 was 0.12 µg/mL (≈ 0.313 µM) and the MIC [5]; 121187 was 0.06 µg/mL (≈ 0.156 µM). For the same compound, the MIC ([1]; 259-96196, read-out: MIC) was 1020 µg/mL (≈ 2670 µM), the MIC ([1]; 262-101856, read-out: MIC) was 32 µg/mL (≈ 83.4 µM) and the MIC ([1]; 264-104354, read-out: MIC) was 64 µg/mL (≈ 167 µM). It also gave an MIC ([1]; 91433, read-out: MIC) of 16 µg/mL (≈ 41.7 µM), an MIC ([1]; 114228, read-out: MIC) of 8 µg/mL (≈ 20.9 µM) and an MIC ([2]; 92247, read-out: MIC) of 4 µg/mL (≈ 10.4 µM). It also gave an MIC ([2]; AB027, read-out: MIC) of 16 µg/mL (≈ 41.7 µM), an MIC ([2]; AB031, read-out: MIC) of 1 µg/mL (≈ 2.61 µM) and an MIC ([2]; LAC-4, read-out: MIC) of less than 1 µg/mL.

Compound `CO/N=C(\C(=O)N[C@@H]1C(=O)N2C(C(=O)[O-])=C(C[N+]3(C)CCCC3)CS[C@H]12)c1csc(N)n1` [CPM, cefepime] has an MIC ([3]; 94393 (mcr-1 +)) of no more than 0.25 µg/mL, an MIC ([3]; 94474 (mcr-1 +)) of no more than 0.25 µg/mL and an MIC [3]; 107115 greater than 64 µg/mL. It also gave an MIC [4]; 113250 of 1 µg/mL (≈ 2.08 µM), an MIC [4]; 113254 of 1 µg/mL (≈ 2.08 µM) and an MIC [4]; 116381 of 16 µg/mL (≈ 33.3 µM). For the same compound, the MIC [5]; 117029 was no more than 0.25 µg/mL, the MIC [5]; 118564 was 0.25 µg/mL (≈ 0.52 µM) and the MIC [5]; 121187 was 0.25 µg/mL (≈ 0.52 µM). It also gave an MIC ([1]; 259-96196, read-out: MIC) greater than 64 µg/mL, an MIC ([1]; 262-101856, read-out: MIC) of 32 µg/mL (≈ 66.6 µM) and an MIC ([1]; 264-104354, read-out: MIC) of 32 µg/mL (≈ 66.6 µM). For the same compound, the MIC ([1]; 91433, read-out: MIC) was 16 µg/mL (≈ 33.3 µM), the MIC ([2]; 92247, read-out: MIC) was 4 µg/mL (≈ 8.32 µM) and the MIC ([2]; AB031, read-out: MIC) was 4 µg/mL (≈ 8.32 µM).
